Experimental data as given in patent US10071042B2, “External dermatological agent for anti-ageing” (Hayashibara Co., Ltd., priority 2014, dated 2018).
Marks after values point to notes of the source that are not given here.

Experiments:
elastin = assay: Elastin production of normal human dermal fibroblasts, colorimetric kit (Experiment 4); format: cell-based; conditions: 2 days, control = 100%
Description: Normal human dermal fibroblasts (NHDF), which had been suspended in a Dulbecco's Modified Eagle Medium supplemented with 10% fetal calf serum to give a cell concentration of 3×10^5 cells/mL, were placed in 24-well plates by 0.5 mL/well and cultured for one day. The cultured cells were washed with Dulbecco's phosphate buffered saline and cultured for another two days in a Dulbecco's Modified Eagle Medium, supplemented with any one of the test substances in Table 5 at respective concentrations shown in the table, to induce elastin synthesis. Thereafter, each culture supernatant was collected, and the remaining cells were washed with one milliliter of Dulbecco's phosphate buffered saline, added with 0.1 mL of 0.25% trypsin and ethylenediaminetetraacetate, followed by incubation at 37° C. for two minutes to detach the cells from the plates. A half milliliter of Dulbecco's phosphate buffered saline was added to each plate, and the resulting cell suspensions were collected in a 1.5-mL tube which was then subjected to centrifugation (3,000×g for five minutes) to collect the cells. Elastin was quantified with a colorimetric determination kit commercialized by Biocolor Ltd., […]. The previously collected supernatant was used to suspend the collected cells, to which was then added 0.16 mL of 1 M oxalic acid, a reagent affixed to the kit, and incubated at 100° C. for one hour to solubilize elastin. To the solubilized elastin placed in a container was added 0.66 mL of an elastin precipitant as a reagent affixed to the kit, mixed for 15 min while repeatedly reversing the container, and centrifuged at 10,000×g for 10 min to precipitate proteins. A half milliliter of a dye, as a reagent affixed to the kit, was added to the resulting precipitate, followed by repeatedly reversing the container for 90 min and centrifuged at 10,000×g for 10 min to collect sediments bound with the dye. Thereafter, the collected sediments were added with 0.25 mL of a dye separator as a reagent affixed to the kit, and mixed for one hour while repeatedly reversing a container with the resulting mixture, followed by determining the absorbance of the resulting mixture at a wavelength of 490 nm and calculating the amount of elastin per well. A calibration curve was generated with an accessory for the kit. A control system was provided by similarly treating normal human dermal fibroblasts (NHDF) without adding any test substance and determined for its absorbance at a wavelength of 490 nm. Regarding the absorbance as 100%, the production level of elastin of each test substance was comparatively evaluated based on the following equation. Equation: Production level of elastin (relative value (%))=[(Absorbance of a sample with any one of test substances)/(Absorbance of control)]×100
(§1) The experiment was repeated three times, and the data was compared to that of control with the Dunnett's multiple comparisons test. The symbol “*” means a level of significance of p<0.01.

[1] = test system: normal human dermal fibroblasts (NHDF); assay: Number of cells, Alamar Blue (Experiment 4); format: cell-based; conditions: control = 100%
Description: To confirm cell proliferation under the above conditions tested, normal human dermal fibroblasts (NHDF), which had been suspended in a Dulbecco's Modified Eagle Medium supplemented with 10% fetal calf serum to give a cell concentration of 2.5×10^5 cells/mL, were placed in 96-well microplates by 0.1 mL/well and cultured for one day. The resulting cells were washed with Dulbecco's phosphate buffered saline and cultured for another two days in a Dulbecco's Modified Eagle Medium supplemented with any one of the test substances in Table 5. The culture supernatants were removed from the microplates, to which were then added 0.2 mL/well of a dilution of “Alamar Blue” diluted with the same culture medium as used in the above by 10 folds to react with the cells at 37° C. for two hours, followed by measuring the fluorescent intensity of the cells at an excitation wavelength of 544 nm and a fluorescent wavelength of 590 nm and obtaining the variation of the number of cells with the addition of any one of the test substances based on the fluorescent intensity of a control system, which had been treated similarly as in the above except for not adding any of the test substances, being regarded as 100%.
as §1

endothelin-1 = assay: Endothelin-1 production after ultraviolet B irradiation, ELISA (Experiment 6); format: cell-based, human; conditions: for Production level of endothelin-1 (%): ultraviolet B 40 mJ/cm^2, control = 100%
Description: Normal human epidermal keratinocytes were proliferated to a confluent state at which the cells were grown over the entire bottom edge of each well of 96-well microplates by using “EpiLife”, a product name of a culture medium containing a growth factor for keratinocytes, commercialized by Life Technologies Corporation, CA, USA, and further cultured for another two days while replacing the medium with a fresh culture medium free of such a growth factor. Thereafter, the resulting cultures were added with sodium adenosine N1-oxide 5′-phosphate to give a concentration of 10, 20, or 50 μM, and allowed to stand for six hours. The cultured cells were washed with Hanks buffer, irradiated with ultraviolet B radiation at an intensity of 40 mJ/cm^2, and further cultured for 24 hours after the addition of a culture medium containing the growth factor. Endothelin-1 in the resulting supernatants was detected with an endothelin-1 specific ELISA kit, commercialized by R&D Systems Inc., MN, USA, colored with tetramethylbenzidine, and measured for absorbance at a wavelength of 450 nm. A control system was provided and similarly treated as above except for not adding sodium adenosine N1-oxide 5′-phosphate and then determined for the production level of endothelin-1 in the resulting culture supernatant to be regarded as 100%. The production level of endothelin-1 for each test substance was comparatively evaluated based on the following equation. Equation: Production level of endothelin-1 (relative value (%))=[(Absorbance of a sample with a test substance)/(Absorbance of control)]×100 The experiment was repeated three times, and the data was compared to that of control with the Dunnett's multiple comparisons test. The symbol “*” means a level of significance of p<0.01.

Compound	Production level of elastin (%) (elastin; 10 μM)	Production level of elastin (%) (elastin; 40 μM)	Production level of elastin (%) (elastin; 100 μM)	Number of cells (%) ([1]; 10 μM)	Number of cells (%) ([1]; 40 μM)	Number of cells (%) ([1]; 100 μM)	Production level of elastin (%) (elastin; 1 μM)	Production level of elastin (%) (elastin; 4 μM)	Production level of elastin (%) (elastin; 10 μM, listed as adenosine N1-oxide)	Number of cells (%) ([1]; 1 μM)	Number of cells (%) ([1]; 4 μM)	Production level of elastin (%) (elastin; 10 μM, listed as sodium adenosine N1-oxide 5′-phosphate)	Production level of endothelin-1 (%) (endothelin-1; 10 μM)	Production level of endothelin-1 (%) (endothelin-1; 20 μM)	production level of endothelin-1 reduced by (endothelin-1; 50 μM, compared to control)	Production level of endothelin-1 (%) (endothelin-1; 50 μM)
Nc1ncnc2c1ncn2[C@@H]1O[C@H](COP(=O)(O)O)[C@@H](O)[C@H]1O [Adenosine 5′-phosphate, reference compound]	114.4%	117.2%	120.0* %	101.0%	102.0%	99.0%										
Nc1c2ncn([C@@H]3O[C@H](CO)[C@@H](O)[C@H]3O)c2nc[n+]1[O-] [Adenosine N1-oxide, adenosine N1-oxide]	118.4* %			94.0%			108.8%	114.8%	about 120%	99.0%	98.0%					
Nc1c2ncn([C@@H]3O[C@H](COP(=O)([O-])O)[C@@H](O)[C@H]3O)c2nc[n+]1[O-].[Na+] [Sodium adenosine N1-oxide 5′-phosphate, sodium adenosine N1-oxide 5′-phosphate]	121.2* %			101.0%			98.0%	105.2%		104.0%	104.0%	about 120%	104.5%	87.9%	about 50%	49.9* %
